From article PMC5461540, “MOB1 Mediated Phospho-recognition in the Core Mammalian Hippo Pathway” (Molecular & Cellular Proteomics : MCP, 2017)
Numbering of substitutions follows the chain as printed. Where two headings read alike, the source gives them in different places. Blank lines part the entries; values can stand above or below the molecule they belong to. Where a SMILES comes first, the peptide text is derived from it.

How the values were obtained:
MOB1A = target: T1, MOB1A (Homo sapiens, UniProt Q9H8S9); assay: Fluorescence polarization peptide binding assay, MOB1A wild-type; settings: FP
T1 construct: MOB1A (2–216, NP_060691); 6xHis (N, cleaved yes); GST (N, cleaved yes); made in house; host or cells: E. coli BL21 (DE3) CodonPlus RIL
T1 sequence (Q9H8S9 2-216): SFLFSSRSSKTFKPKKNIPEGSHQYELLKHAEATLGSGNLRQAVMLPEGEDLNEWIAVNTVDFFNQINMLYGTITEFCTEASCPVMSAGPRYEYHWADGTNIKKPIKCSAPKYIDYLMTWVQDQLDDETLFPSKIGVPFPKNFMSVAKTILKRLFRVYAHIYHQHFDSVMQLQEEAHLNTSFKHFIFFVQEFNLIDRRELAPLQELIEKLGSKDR
Text: (§1) Human MST1 kinase domain (amino acids 2–326, corresponding to NCBI RefSeq protein NP_006273), MST2 kinase domain (2–322, NP_006272), MOB1B (2–216, NP_001231695), MOB1A (2–216, NP_060691) wild-type and indicated MOB1A mutant proteins, MOB2 (2–237, NP_001165694), MOB3A (2–217, NP_570719), MOB3B (2–216, NP_079037), MOB3C (2–216, NP_660322), MOB4 (2–225, NP_056202), MOB4^RRR→AAA (2–225), and yeast Mob1 (79–314, NP_012160) were expressed in E. coli BL21 (DE3) CodonPlus RIL cells as N-terminal dual 6xhistidine (HIS) and glutathione S-transferase (GST), Tobacco Etch Virus (TEV) cleavable, fusion proteins using a modified pETM-30 vector. MOB wild-type and mutants were purified in batch on glutathione-Sepharose resin (GE Healthcare, Uppsala, Sweden) and eluted by cleavage from the affinity tags with HIS tagged TEV protease. TEV protease was removed from the eluted protein by subtractive immobilized-metal affinity chromatography. Cleaved protein was then concentrated and buffer exchanged by size exclusion chromatography (SEC) using a Superdex 75 120 ml column (GE Healthcare). For GST pull-downs and Far-Western analysis, the TEV cleavage step was omitted.
MST1 phosphopeptides encompassing pT353 and pT367 (15-mers) used for crystallization and FITC labeled nonphosphorylated and phosphorylated MST1 T353 peptides, T367 peptides, T329-T340 peptides, T380-T387 peptides and optimized Nud1-like peptides for fluorescence polarization binding experiments were purchased from Biomatik (Cambridge, ON). Peptide sequences used for crystallization studies are: T353, […](p)TMIEH and T367, […](p)TMVINA. All peptides used for biophysical studies are listed in supplemental Table S1.
Twelve-point fluorescence polarization binding measurements were performed in triplicate in 384-well plate format using an Analyst HT (Artisan-Scientific, Sunnyvale, CA) reader. Each 20 μl measurement condition contained 20 nM FITC labeled MST1 peptide or Nud1-like peptide and the indicated concentration of MOB proteins in 25 mM HEPES pH 7.5, 150 mM NaCl, 2 mM DTT, and 1 mg/ml bovine serum albumin (BSA). Kd values were obtained by fitting the results to a one site-specific binding model using GraphPad Prism.

MOB1A KRR→3A mutant = target: T2, MOB1A KRR→3A mutant (Homo sapiens, UniProt Q9H8S9, K153A/R154A/R157A); assay: Fluorescence polarization peptide binding assay, MOB1A KRR→3A mutant (K153, R154, R157 to alanine); settings: Fig. 2B, MOB1A KRR→3A (K153, R154, R157 to alanine); FP, 20 nM FITC labeled peptide, pH 7.5; n = 3; N.D. = Kd could not be determined
T2 construct: MOB1A (2–216, NP_060691) wild-type and indicated MOB1A mutant proteins; 6xHis (N, cleaved yes); GST (N, cleaved yes); made in house; host or cells: E. coli BL21 (DE3) CodonPlus RIL
T2 sequence (Q9H8S9 2-216 K153A/R154A/R157A): T1 sequence (Q9H8S9 2-216) with K152A, R153A, R156A
Text: as §1, with “TEV protease was removed from the eluted protein by subtractive immobilized-metal affinity chromatography. Cleaved protein was then concentrated and buffer exchanged by size exclusion chromatography (SEC) using a Superdex 75 120 ml column (GE Healthcare). For GST pull-downs and Far-Western analysis, the TEV cleavage step was omitted.” left out
MST1 phosphopeptides encompassing pT353 and pT367 (15-mers) used for crystallization and FITC labeled nonphosphorylated and phosphorylated MST1 T353 peptides, T367 peptides, T329-T340 peptides, T380-T387 peptides and optimized Nud1-like peptides for fluorescence polarization binding experiments were purchased from Biomatik (Cambridge, ON). […]
Twelve-point fluorescence polarization binding measurements were performed in triplicate in 384-well plate format using an Analyst HT (Artisan-Scientific, Sunnyvale, CA) reader. […]

GST-MOB1B = assay: Peptide array Far-Western overlay with GST-MOB1B; type: binding, human; settings: cellulose-bound 15-mer peptide SPOT array probed with 1 μg GST-MOB1B at 20 °C overnight, anti-GST HRP detection
Protocol: Cellulose-bound peptide arrays were prepared employing Fmoc solid phase peptide synthesis using a MultiPep-RSi-Spotter (INTAVIS, Köln, Germany) according to the SPOT synthesis method provided by the manufacturer, and previously described ([29]). Peptides were synthesized on amino-functionalized cellulose membranes (Whatman™ Chromatography paper Grade 1CHR, GE Healthcare Life Sciences #3001–878) and the presence of SPOTed peptides was confirmed by ultraviolet light (UV, λ = […]). Peptide sequences were chosen for each of the phosphorylated sites within the sequence encompassing residues 327 to 487 of MST1 as reported in PhosphositePlus (31/01/2014, ref 30). In addition, 15 amino acid-long peptides spanning the entire MST1 linker region (aa 327–487) were also synthesized in both phospho- and nonphosphorylated versions (for every serine, threonine, or tyrosine position; supplemental Fig. S1). Subsequent arrays were generated by alanine scanning from the pT353 and pT367 peptide sequences. The peptide arrays were soaked in 100% ethanol and blocked in 5% milk in H2O for 6 h at 20 °C. One microgram of GST-MOB1B (or GST alone) was used to probe the arrays at 20 °C overnight. Following washes with PBS plus 0.1% Tween-20, the arrays were blocked again in 5% milk for 1 h. […]

yeast Mob1 = yeast Mob1 binding to Nud1 short linear phosphopeptide motif; cited from earlier work
Text: Key to its function as a Hippo pathway activator is the ability of MOB1 to bind directly to MST1 and MST2 kinases. Recent structural studies provided key insight into the underlying mechanism of binding.

[1] = Fig. 3D summary of MST1 phosphopeptide affinities for MOB1A, read-out: Kd
[2] = 20 nM FITC labeled peptide, recombinant wild-type MOB1A, pH 7.5

Kd (MOB1A; [1]): 66.1 µM
Molecule: CSCC[C@H](NC(=O)[C@H](CCC(=O)O)NC(=O)[C@H](CC(=O)O)NC(=O)CNC(=O)[C@@H](NC(=O)[C@H](C)NC(=O)[C@H](CCCNC(=N)N)NC(=O)[C@@H](NC(=O)[C@H](CCSC)NC(=O)[C@@H](NC(=O)CN)[C@@H](C)O)C(C)C)C(C)C)C(=O)NCC(=O)N[C@H](C(=O)N[C@H](C(=O)N[C@@H](CCCNC(=N)N)C(=O)O)C(C)C)[C@@H](C)OP(=O)(O)O [MST1 T329/pT340 peptide] (HELM PEPTIDE1{G.T.M.V.R.A.V.G.D.E.M.G.[C[C@@H](OP(=O)(O)O)[C@H](N[*:1])C(=O)[*:2]].V.R}$$$$V2.0)

Kd (MOB1A; [1]): 46.5 µM
Molecule: CSCC[C@H](NC(=O)[C@H](CCC(=O)O)NC(=O)[C@H](CC(=O)O)NC(=O)CNC(=O)[C@@H](NC(=O)[C@H](C)NC(=O)[C@H](CCCNC(=N)N)NC(=O)[C@@H](NC(=O)[C@H](CCSC)NC(=O)[C@@H](NC(=O)CN)[C@@H](C)OP(=O)(O)O)C(C)C)C(C)C)C(=O)NCC(=O)N[C@H](C(=O)N[C@H](C(=O)N[C@@H](CCCNC(=N)N)C(=O)O)C(C)C)[C@@H](C)O [MST1 pT329/T340 peptide] (HELM PEPTIDE1{G.[C[C@@H](OP(=O)(O)O)[C@H](N[*:1])C(=O)[*:2]].M.V.R.A.V.G.D.E.M.G.T.V.R}$$$$V2.0)

Kd (MOB1A; Supplemental Fig. 4A, 4B, MOB1A, differentially phosphorylated MST1 15-mer peptides, mean ± SEM (n=3), read-out: kd): 49 ± 6 µM
Molecule: CSCC[C@H](NC(=O)[C@H](CCC(=O)O)NC(=O)[C@H](CC(=O)O)NC(=O)CNC(=O)[C@@H](NC(=O)[C@H](C)NC(=O)[C@H](CCCNC(=N)N)NC(=O)[C@@H](NC(=O)[C@H](CCSC)NC(=O)[C@@H](NC(=O)CN)[C@@H](C)OP(=O)(O)O)C(C)C)C(C)C)C(=O)NCC(=O)N[C@H](C(=O)N[C@H](C(=O)N[C@@H](CCCNC(=N)N)C(=O)O)C(C)C)[C@@H](C)OP(=O)(O)O [MST1 pT329/pT340 peptide] (HELM PEPTIDE1{G.[C[C@@H](OP(=O)(O)O)[C@H](N[*:1])C(=O)[*:2]].M.V.R.A.V.G.D.E.M.G.[C[C@@H](OP(=O)(O)O)[C@H](N[*:1])C(=O)[*:2]].V.R}$$$$V2.0)

Kd (MOB1A; [2]): no detectable binding
Molecule: CC[C@H](C)[C@H](NC(=O)[C@H](CCSC)NC(=O)[C@@H](NC(=O)[C@H](CC(N)=O)NC(=O)[C@H](C)NC(=O)CNC(=O)[C@H](CC(=O)O)NC(=O)[C@@H](NC(=O)[C@H](CCSC)NC(=O)[C@@H](NC(=O)[C@H](CO)NC(=O)[C@H](C)NC(=O)[C@@H](N)C(C)C)[C@@H](C)O)[C@@H](C)O)[C@@H](C)O)C(=O)N[C@@H](CCC(=O)O)C(=O)N[C@@H](Cc1c[nH]cn1)C(=O)O [T353] (H-VASTMTDGANTMIEH-OH)

Kd (MOB1A; [2]): no detectable binding
Molecule: CC[C@H](C)[C@H](NC(=O)[C@@H](NC(=O)[C@H](CCSC)NC(=O)[C@@H](NC(=O)CNC(=O)[C@H](CC(C)C)NC(=O)[C@H](CCC(N)=O)NC(=O)[C@H](CO)NC(=O)[C@@H]1CCCN1C(=O)[C@H](CC(C)C)NC(=O)[C@@H](NC(=O)[C@H](CC(=O)O)NC(=O)[C@@H](N)CC(=O)O)[C@@H](C)O)[C@@H](C)O)C(C)C)C(=O)N[C@@H](CC(N)=O)C(=O)N[C@@H](C)C(=O)O [T367] (H-DDTLPSQLGTMVINA-OH)

Kd (MOB1A; 20 nM FITC labeled peptide, recombinant wild-type MOB1A, pH 7.5, read-out: Kd): 0.28 µM
Kd (MOB1A KRR→3A mutant): no measurable binding
Molecule: CC[C@H](C)[C@H](NC(=O)[C@H](CCSC)NC(=O)[C@@H](NC(=O)[C@H](CC(N)=O)NC(=O)[C@H](C)NC(=O)CNC(=O)[C@H](CC(=O)O)NC(=O)[C@@H](NC(=O)[C@H](CCSC)NC(=O)[C@@H](NC(=O)[C@H](CO)NC(=O)[C@H](C)NC(=O)[C@@H](N)C(C)C)[C@@H](C)O)[C@@H](C)O)[C@@H](C)OP(=O)(O)O)C(=O)N[C@@H](CCC(=O)O)C(=O)N[C@@H](Cc1c[nH]cn1)C(=O)O [pT353] (HELM PEPTIDE1{V.A.S.T.M.T.D.G.A.N.[C[C@@H](OP(=O)(O)O)[C@H](N[*:1])C(=O)[*:2]].M.I.E.H}$$$$V2.0)

Molecule: AKPSFLEYFEQKEKE [MST1 residues 391 to 405]
binding signal in Far-Western peptide array (GST-MOB1B): sufficient to bind to MOB1B

Molecule: TVLNNYSpTVHQKVPS
Kd (yeast Mob1): 2400 nM
